Results: article PMC12213745, “Compounds from Cyclocarya paliurus leaves inhibit binary division of methicillin-resistant Staphylococcus aureus by disrupting FtsZ dynamic” (Frontiers in Microbiology, 2025)
Converted amounts (≈) assume the structure as drawn. Where two headings read alike, the source gives them in different places.

What was measured:
E. coli ATCC25922 = test: MIC, broth microdilution (CLSI); format: cell-based; details: Escherichia coli
From the text: (§1) Staphylococcus aureus ATCC25923 and Escherichia coli ATCC25922 were obtained from the American Type Culture Collection (ATCC, Manassas, VA, USA). The Methicillin-resistant S. aureus (MRSA) clinical isolate MRSA-4, previously confirmed as mecA-positive and characterized for its antibiotic resistance profile ([Sun et al., 2023]), was used in this study. Staphylococcus epidermidis (GDMCC 1.143), Enterococcus faecalis (GDMCC 1.164), and Salmonella enterica subsp. enterica (GDMCC 1.1114) were obtained from the Guangdong Microbial Culture Collection Center (GDMCC, Guangzhou, China). The Pseudomonas aeruginosa PA14 strain was kindly provided by Professor Min Wu (Southwest Medical University, China). All bacterial strains were routinely cultured in Mueller-Hinton broth (MHB) or Luria-Bertani (LB) broth medium at 37°C with shaking at 200 rpm. Vancomycin was purchased from Solarbio Science & Technology Co., Ltd. (Beijing, China), and oxacillin was obtained from Taiji Group Hengsheng Pharmaceutical Co., Ltd. (Chengdu, China). The polyclonal rabbit primary anti-body to FtsZ was purchased from Abcam PLC (Cambridge, UK). Alexa488-conjugated goat anti-rabbit IgG was purchased from ZSGB-BIO Biotechnology (Beijing, China). DAPI staining solution was purchased from Beyotime Biotechnology (Shanghai, China).
(§2) The minimum inhibitory concentrations (MICs) of the test compounds (AA, MA, and UA) were determined using the standard broth microdilution method in accordance with the Clinical and Laboratory Standards Institute (CLSI) guidelines ([Humphries et al., 2021]). Bacteria were cultured in MHB or LB broth at 37°C with shaking (200 rpm) to the logarithmic phase, then diluted to a final density of 1 × 10^6 CFU/mL. Test compounds (dissolved in DMSO) and positive controls (vancomycin and oxacillin) were diluted in MHB and serially twofold diluted in 96-well plates. Each well was inoculated with 100 μL of bacterial suspension (1 × 10^6 CFU/mL), yielding a final bacterial density of 5 × 10^5 CFU/mL and a total volume of 200 μL. The final concentrations tested were 128 to 1 μg/mL for AA, MA, and UA; 16 to 0.5 μg/mL for vancomycin; and 64 to 0.0625 μg/mL for oxacillin. DMSO was used as a solvent control. Plates were incubated statically at 37°C for 18–24 h. After incubation, the OD600 was measured using a microplate reader (SpectraMax i3x, Molecular Devices, CA, USA). The MIC was defined as the lowest compound concentration that caused ≥ 90% inhibition of bacterial growth compared to the drug-free growth control. All tests were performed in three independent biological replicates.
(§3) Following the isolation and identification of AA, MA, and UA from ECPL, we evaluated their antibacterial activity and spectrum. The MICs of the compounds were determined against MRSA-4, S. aureus ATCC25923, S. epidermidis, and E. faecalis (Gram-positive), as well as P. aeruginosa PA14, E. coli ATCC25922, and S. enterica subsp. Enterica (Gram-negative) using the standard broth microdilution method in accordance with CLSI guidelines ([Humphries et al., 2021]).

E. faecalis = test: MIC, broth microdilution (CLSI); format: cell-based; details: Enterococcus faecalis
From the text: as §1, §2, §3

P. aeruginosa PA14 = test: MIC, broth microdilution (CLSI); format: cell-based; details: Pseudomonas aeruginosa
From the text: as §1, §2, §3

S. aureus ATCC25923 = test: MIC, broth microdilution (CLSI); format: cell-based; details: Staphylococcus aureus
From the text: as §1, §2, §3

S. epidermidis (1.143) = test: MIC, broth microdilution (CLSI); format: cell-based; details: Staphylococcus epidermidis
From the text: as §1, §2, §3

[1] = test system: S. enterica subsp. Enterica (1.1114); test: MIC, broth microdilution (CLSI); format: cell-based, Salmonella enterica subsp. enterica; details: Salmonella enterica; S. enterica subsp. Enterica (1.1114); ≥ 90% growth inhibition, 18–24 h; read-out: MIC
From the text: as §1, §2, §3

MRSA-4 = test: SEM analysis, cell long axis; format: cell-based, Methicillin-resistant S. aureus; details: 2 × MIC, 2 h, mean ± SD, PBS control 0.53 ± 0.04
Procedure: Scanning electron microscopy (SEM) was used to observe the morphological changes in bacterial cells treated with the isolated compounds. S. aureus ATCC 25923 and MRSA-4 were grown in MHB to mid-log phase (OD600 = 0.4–0.6) as previously described. The bacteria cultures were treated with AA, MA, or UA at 2 × MIC for 2 h at 37°C with shaking at 150 rpm. Untreated cultures (PBS group) served as the growth control. After incubation, bacterial cells were harvested by centrifugation and washed three times with PBS (pH 7.2). Coverslips (8 mm diameter) were cleaned with absolute ethanol under ultrasonication, air-dried, immersed in 0.1% (w/v) chitosan solution (dissolved in 1% acetic acid) for 5 s, and air-dried again at room temperature ([Su et al., 2022]). A 25 μL aliquot of the washed bacterial suspension was added to each coverslip and allowed to adhere for 1 h at room temperature. Adhered cells were fixed with 1 mL of 2.5% (v/v) glutaraldehyde at 4°C overnight. Fixed samples were rinsed 2–3 times with PBS (5 min per rinse), then dehydrated through a graded ethanol series: 50, 70, and 90% ethanol (each once for 5 min), followed by 100% ethanol (three times for 5 min each). After dehydration, samples were air-dried overnight at room temperature. SEM imaging was performed using an EVO 10 scanning electron microscope (Zeiss, Jena, Germany). Cell long-axis statistical analysis was conducted using ImageJ software (Version 1.42q, National Institutes of Health, MD, USA).
Having established the antibacterial activity of AA, MA, and UA, we next examined their effects on bacterial morphology. We employed SEM to examine the alterations induced by these compounds in S. aureus ATCC25923 and MRSA-4. Bacterial cultures were treated with AA, MA, or UA at 2 × MIC for 2 h, while untreated (PBS group) cultures served as negative controls. […] In PBS groups, both S. aureus ATCC25923 and MRSA-4 maintained typical spherical morphology with smooth and intact surfaces.

[2] = E. coli ATCC25922, ≥ 90% growth inhibition, 18–24 h, read-out: MIC
[3] = E. faecalis, ≥ 90% growth inhibition, 18–24 h, read-out: MIC
[4] = P. aeruginosa PA14, ≥ 90% growth inhibition, 18–24 h, read-out: MIC
[5] = S. aureus ATCC25923, ≥ 90% growth inhibition, 18–24 h, read-out: MIC
[6] = S. epidermidis (1.143), ≥ 90% growth inhibition, 18–24 h, read-out: MIC

Row | SMILES | MIC (E. coli ATCC25922; [2]) | MIC (E. faecalis; [3]) | MIC (P. aeruginosa PA14; [4]) | MIC (S. aureus ATCC25923; [5]) | MIC (S. epidermidis (1.143); [6]) | MIC [1] | length of long axis of cells (MRSA-4) | MIC (E. coli ATCC25922; ATCC25922) | MIC (E. faecalis) | MIC (P. aeruginosa PA14; PA14) | MIC (S. aureus ATCC25923; ATCC25923) | MIC (S. epidermidis (1.143))
1 | C[C@H]1[C@H](C)CC[C@]2(C(=O)O)CC[C@]3(C)C(=CC[C@@H]4[C@@]5(C)C[C@@H](O)[C@H](O)[C@@](C)(CO)[C@@H]5CC[C@]43C)[C@H]12 [AA, asiatic acid] | > 128 µg/mL | 16 µg/mL (≈ 32.7 µM) | > 128 µg/mL | 32 µg/mL (≈ 65.5 µM) | 16 µg/mL (≈ 32.7 µM) | > 128 µg/mL | 0.75 ± 0.07 μm |  |  |  |  | 
2 | CC1(C)CC[C@]2(C(=O)O)CC[C@]3(C)C(=CC[C@@H]4[C@@]5(C)C[C@@H](O)[C@H](O)C(C)(C)[C@@H]5CC[C@]43C)[C@@H]2C1 [MA, maslinic acid] |  |  |  |  |  | > 128 µg/mL | 0.76 ± 0.10 μm | > 128 µg/mL | 4 µg/mL (≈ 8.46 µM) | > 128 µg/mL | 32 µg/mL (≈ 67.7 µM) | 8 µg/mL (≈ 16.9 µM)
3 | C[C@H]1[C@H](C)CC[C@]2(C(=O)O)CC[C@]3(C)C(=CC[C@@H]4[C@@]5(C)CC[C@H](O)C(C)(C)[C@@H]5CC[C@]43C)[C@H]12 [UA, ursolic acid] | > 128 µg/mL | 2 µg/mL (≈ 4.38 µM) | > 128 µg/mL | 16 µg/mL (≈ 35 µM) | 8 µg/mL (≈ 17.5 µM) | > 128 µg/mL | 0.69 ± 0.06 μm |  |  |  |  | 
